Like-named read-outs stand apart in the source and are kept apart here.
How the values were obtained:
HUVEC = HUVEC assay, endothelial cell proliferation; format: cell-based; conditions: Homo sapiens
Calu-6 tumour xenograft = Calu-6 tumour xenograft in vivo solid tumour model; conditions: once-daily oral, 28 days
[1] = target: stem cell factor receptor tyrosine kinase (SCF RTK, commonly known as c-Kit) (Homo sapiens, UniProt P10721); experiment: inhibition of c-Kit
NCI-H526 xenografts = experiment: NCI-H526 xenograft tumour growth, combination study; format: in vivo; conditions: NCI-H526, nude mice, oral gavage; Compound A 20 mg/kg, AZD2171 3 mg/kg, combination same doses; compared with vehicle control
Protocol: Cells were grown in NCI-H526 (RPMI 10% FCS 1% Glutamine 10% Ml), and 1×10^7 cells were implanted into the flank of nude mice (NCI-H526 plus 50% matrigel).
When mean tumor size reached approx 0.2 cm^3, the mice were randomized into control and treatment groups. […] When administered in combination, COMPOUND A was given 2 hours […] the oral dose of the other compound. The control group received the (10% DMSO 90% propylene glycol) vehicle alone, once daily by oral gavage. Tumor volumes (measured by calliper), animal body weight and tumor condition were recorded twice weekly for the duration of the study. Mice were sacrificed by CO2 euthanasia. The tumor volume was calculated (taking length to be the longest diameter across the tumor and width to be the corresponding perpendicular diameter using the formula: (length×width)×√(length×width)×(π/6). Growth inhibition from the start of treatment was assessed by comparison of the differences in tumor volume between control and treated groups. Because the variance in mean tumor volume data increases proportionally with volume (and is therefore disproportionate between groups), data were log-transformed to remove any size dependency before statistical evaluation. Statistical significance was evaluated using a one-tailed, two-sample t test. To analyze the data from the combination study, the statistical tool SigmaStat has been used. […]

A549 tumour xenografts = experiment: A549 xenograft tumour growth, combination study; format: in vivo, mice; conditions: Compound A 20 mg/kg, AZD2171 3 mg/kg; for tumour growth inhibition: A549, female athymic mice, oral gavage once daily, 21 days, combination same doses, compared to control; for tumours smaller than at start of treatment: A549, individual tumour volumes at the end of the dosing period
Protocol: Human tumour xenografts were established in female athymic mice by injecting 5×10^6/0.1 ml A549a cells subcutaneously in the left hand side flank.
(§1) When mean tumour volume reached approximately 0.27 cm^3, the mice were randomized into control and treatment groups. […] The control group received both vehicles alone (same sequence as above), once daily by oral gavage. Tumor volumes (measured by calliper), animal body weight and tumor condition were recorded twice weekly for the duration of the study. Mice were humanely sacrificed by CO2 euthanasia. Tumour volumes were assessed using bilateral Vernier calliper measurement at least twice weekly and calculated using the formula (length×width)×√(length×width)×(π/6), where length was taken to be the longest diameter across the tumour and width the corresponding perpendicular. Growth inhibition from the start of treatment was assessed by comparison of the differences in tumor volume between control and treated groups. Because the variance in mean tumor volume data increases proportionally with volume (and is therefore disproportionate between groups), data were log-transformed to remove any size dependency before statistical evaluation. Statistical significance was evaluated using a one-tailed, two-sample t test. To analyze the data from the combination study, the statistical tool SigmaStat has been used. A two-way ANOVA test was performed using the factors concentration of drug A and concentration of drug B. The data analyzed was Log(final tumor volume)−Log(initial tumor volume) calculated for each individual animal at the end of the study. This tool is used to assess whether there is a main effect of drug A, a main effect of drug B plus a significant mechanistic interaction between the two compounds A and B (eg, one compound influences the effect of the other compound) which may be interpreted as antagonism, additivity or synergism. The statistical analysis was performed at the end of the dosing period (21 days).

[2] = body weight loss in A549 study; format: in vivo, mice; conditions: Compound A 20 mg/kg, AZD2171 3 mg/kg, range in brackets
Protocol: as §1, with “To analyze the data from the combination study, the statistical tool SigmaStat has been used.” left out, “This tool is used to assess whether there is a main effect of drug A, a main effect of drug B plus a significant mechanistic interaction between the two compounds A and B (eg, one compound influences the effect of the other compound) which may be interpreted as antagonism, additivity or synergism. The statistical analysis was performed at the end of the dosing period (21 days).” left out

pAKT [3] = experiment: pharmacodynamic study, pAKT in A549 xenograft tissue; format: in vivo, mice; conditions: 4 days of treatment, 2 hrs after last dosing, Compound A 20 mg/kg, AZD2171 3 mg/kg
Protocol: (§2) Compound A was dosed two hours before AZD2171 (or vehicle).
In the combination group, levels of pAKT were similar to those with Compound A to 58% (p<0.005) compared to control (FIG. 3).

pS6 [4] = experiment: pharmacodynamic study, pS6 in A549 xenograft tissue; format: in vivo, mice; conditions: 4 days of treatment, 2 hrs after last dosing, Compound A 20 mg/kg, AZD2171 3 mg/kg
Protocol: as §2

[5] = system: Microvessel density (CD31 staining); experiment: microvessel density by CD31 immunohistochemistry, A549 xenografts; format: in vivo, mice; conditions: A549 xenograft, 2 hours after 4 days of treatment; vehicle 26.6%; Compound A 20 mg/kg, AZD2171 3 mg/kg
Protocol: Microvessel density (MVD) was evaluated using CD31 staining by immunohistochemistry 2 hours after 4 days of treatment.

cleaved caspase 3 [6] = experiment: cleaved caspase 3 immunohistochemistry, A549 xenografts; format: in vivo, mice; conditions: A549 xenograft, 2 hours after 4 days of treatment; control 0.94%; Compound A 20 mg/kg, AZD2171 3 mg/kg
Protocol: Compound A was dosed two hours before AZD2171 (or vehicle). […] The levels of cleaved caspase 3 (percentage of positive nuclei) were determined in tumour xenografts by immunohistochemistry 2 hours after 4 days of treatment.

U87MG xenografts = experiment: U87MG xenograft tumour growth, combination study; format: in vivo; conditions: female athymic mice, oral gavage once daily, 7 days, Compound A 10 mg/kg/qd, ZD6474 50 mg/kg/qd, combination same doses, compared to control
Protocol: (§3) Human tumour xenografts were established in female athymic mice by injecting 2.3×10^6/0.1 ml U87MG cells subcutaneously in the left hand side flank. When mean tumour volume reached approximately 0.18 cm^3, the mice were randomized into control and treatment groups. The treatment groups received 50 mg/kg ZD6474 (vehicle 1% polysorbate 80 milled overnight) or 10 mg/kg COMPOUND A (30% captisol pH5) or a combination 50 mg/kg ZD6474 and 10 mg/kg COMPOUND A by oral gavage. When administered in combination, COMPOUND A was given 2 hours before the oral dose of ZD6474. The control group received both vehicles (same sequence as above), once daily by oral gavage. Tumor volumes (measured by calliper), animal body weight and tumor condition were recorded twice weekly for the duration of the study. Mice were humanely sacrificed by CO2 euthanasia. Tumour volumes were assessed using bilateral Vernier calliper measurement at least twice weekly and calculated using the formula (length×width)×√(length×width)×(π/6), where length was taken to be the longest diameter across the tumour and width the corresponding perpendicular. Growth inhibition from the start of treatment was assessed by comparison of the differences in tumor volume between control and treated groups. […] Statistical significance was evaluated using a one-tailed, two-sample t test. […]

[7] = body weight loss in U87MG study; format: in vivo, mice; conditions: Compound A 10 mg/kg, ZD6474 50 mg/kg, range in brackets
Protocol: as §3

pAKT [8] = experiment: pharmacodynamic study, pAKT in U87MG xenograft tissue; format: in vivo, mice; conditions: 4 days of treatment, 2 hrs after last dosing, Compound A 10 mg/kg, ZD6474 50 mg/kg
[9] = system: Microvessel density (CD31 staining); experiment: microvessel density by CD31 immunohistochemistry, U87MG xenografts; format: in vivo, mice; conditions: U87MG xenograft, 2 hours after 4 days of treatment; vehicle 59%; Compound A 10 mg/kg, ZD6474 50 mg/kg
Protocol: Microvessel density (MVD) was evaluated using CD31 staining by immuno-histochemistry 2 hours after 4 days of treatment. MVD values were 59% in vehicle-treated animals, reduced to 22% (p<0.05) after ZD6474, 50% (p=0.23) after Compound A, and 28% (p<0.05) after the combination (FIG. 8). There was no statistical interaction between compound A and ZD6474 in the combination-treated tumours (p=0.27).

cleaved caspase 3 [10] = experiment: cleaved caspase 3 immunohistochemistry, U87MG xenografts; format: in vivo, mice; conditions: U87MG xenograft, 2 hours after 4 days of treatment; control 0.46%; Compound A 10 mg/kg, ZD6474 50 mg/kg
Protocol: The levels of cleaved caspase 3 (percentage of positive nuclei) were determined in tumour xenografts by immunohistochemistry 2 hours after 4 days of treatment.

pS6 [11] = experiment: pharmacodynamic study, pS6 in U87MG xenograft tissue; conditions: 4 days of treatment, 2 hrs after last dosing, Compound A 10 mg/kg, ZD6474 50 mg/kg
Protocol: A pharmacodynamic study evaluated biomarkers after 4 days of treatment. Animals were dosed with vehicle, ZD6474 (50 mg/kg), Compound A (10 mg/kg) or the combination daily. Compound A was dosed two hours before ZD6474 (or vehicle). Animals were culled and tumour xenograft tissue collected 2 hrs after the last dosing. […] In addition a two-way ANOVA test was performed to analyse the interaction between compounds in the combination group.

Chain of stem cell factor receptor tyrosine kinase (SCF RTK, commonly known as c-Kit) (P10721 26-976): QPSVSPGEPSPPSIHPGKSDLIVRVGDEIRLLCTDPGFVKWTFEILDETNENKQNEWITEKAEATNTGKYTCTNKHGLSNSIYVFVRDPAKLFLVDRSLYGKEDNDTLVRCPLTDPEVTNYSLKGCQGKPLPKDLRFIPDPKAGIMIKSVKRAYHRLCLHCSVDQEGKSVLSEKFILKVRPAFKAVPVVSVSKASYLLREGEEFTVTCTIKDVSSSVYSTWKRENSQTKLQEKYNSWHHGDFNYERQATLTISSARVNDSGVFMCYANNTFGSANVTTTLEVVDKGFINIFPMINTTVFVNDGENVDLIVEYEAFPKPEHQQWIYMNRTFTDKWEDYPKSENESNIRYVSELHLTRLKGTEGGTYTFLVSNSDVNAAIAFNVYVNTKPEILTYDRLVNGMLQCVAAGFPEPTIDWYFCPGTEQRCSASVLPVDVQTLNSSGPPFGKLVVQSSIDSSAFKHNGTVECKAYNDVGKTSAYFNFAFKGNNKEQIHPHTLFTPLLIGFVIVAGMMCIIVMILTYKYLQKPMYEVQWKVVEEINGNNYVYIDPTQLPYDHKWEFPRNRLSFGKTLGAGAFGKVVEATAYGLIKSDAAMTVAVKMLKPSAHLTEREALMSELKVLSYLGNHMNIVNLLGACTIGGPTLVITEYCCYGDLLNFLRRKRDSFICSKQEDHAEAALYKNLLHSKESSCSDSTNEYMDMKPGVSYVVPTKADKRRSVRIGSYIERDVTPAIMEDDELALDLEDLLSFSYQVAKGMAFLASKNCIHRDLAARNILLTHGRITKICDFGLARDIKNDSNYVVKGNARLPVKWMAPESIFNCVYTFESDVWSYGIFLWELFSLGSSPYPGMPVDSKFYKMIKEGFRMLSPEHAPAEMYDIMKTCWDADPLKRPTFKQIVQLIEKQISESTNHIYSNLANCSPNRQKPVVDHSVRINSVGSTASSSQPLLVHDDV

| Structure (SMILES) | IC50 (HUVEC; HUVEC assay, VEGF-stimulated, read-out: IC50, VEGF-stimulated endothelial cell proliferation) [nM] | IC50 (HUVEC; HUVEC, basal (no VEGF stimulation), read-out: IC50, basal endothelial cell proliferation) [nM] | inhibition of growth of Calu-6 tumour xenograft (Calu-6 tumour xenograft; 1.5 mg/kg/day) [%] | inhibition of growth of Calu-6 tumour xenograft (Calu-6 tumour xenograft; 3 mg/kg/day) [%] | inhibition of growth of Calu-6 tumour xenograft (Calu-6 tumour xenograft; 6 mg/kg/day) [%] | inhibition of c-Kit [1] | reduction in geometric mean delta tumour volume (NCI-H526 xenografts) [%] | tumour growth inhibition (A549 tumour xenografts) [%] | tumours smaller than at start of treatment (A549 tumour xenografts) | maximum body weight loss [2] [%] | levels of pAKT (normalised to total) compared to control (pAKT [3]) [%] | levels of pS6 (normalised to total) compared to control (pS6 [4]) [%] | MVD values [5] [%] | CC3 values (percentage of positive nuclei) (cleaved caspase 3 [6]) [%] | tumour growth inhibition (U87MG xenografts) [%] | maximum body weight loss [7] [%] | levels of pAKT (normalised to total) compared to control (pAKT [8]) [%] | MVD values [9] [%] | CC3 values (percentage of positive nuclei) (cleaved caspase 3 [10]) [%] | levels of pS6 (normalised to total) compared to control (pS6 [11]) [%] |
| --- | --- | --- | --- | --- | --- | --- | --- | --- | --- | --- | --- | --- | --- | --- | --- | --- | --- | --- | --- | --- |
| COc1cc2c(Oc3ccc4[nH]c(C)cc4c3F)ncnc2cc1OCCCN1CCCC1 [AZD2171, 4-(4-fluoro-2-methyl-1H-indol-5-yloxy)-6-methoxy-7-(3-(pyrrolidin-1-yl)propoxy)quinazoline] | 0.4 ± 0.2 | > 500 | 49 | 69 | 91 | inhibits c-Kit | 64 | 81.6 | tumour volumes were greater than at start of the treatment | 2.52 | 95 | 126 | 7.75 | 0.43 |  |  |  |  |  |  |
| COc1cc2c(Nc3ccc(Br)cc3F)ncnc2cc1OCC1CCN(C)CC1 [ZD6474, 4-(4-bromo-2-fluoroanilino)-6-methoxy-7-(1-methylpiperidin-4-ylmethoxy)quinazoline] |  |  |  |  |  |  |  |  |  |  |  |  |  |  | −14.6 | 3.77 | 87 | 22 | 0.73 | 108 |
| COc1ccc(-c2ccc3c(N4CCOC[C@@H]4C)nc(N4CCOC[C@@H]4C)nc3n2)cc1CO [Compound A, [5-[2,4-bis[(3S)-3-methylmorpholin-4-yl]pyrido[5,6-e]pyrimidin-7-yl]-2-methoxyphenyl]methanol] |  |  |  |  |  |  | 38 | 99.3 | 4 out of 10 | 3.45 | 48 | 37 | 19.39 | 1.98 | 28.4 | 0.44 | 37 | 50 | 1.64 | 55 |

Reference: patent US20110028471A1, “COMBINATION THERAPY 238” (ASTRAZENECA AB, priority 2008, published 2011)
